System: M2 macrophage (RAW264.7 differentiated into M2-type with IL-4 and IL-13)
Assay: MTS cell viability assay, M2-type macrophage
Format: cell-based, mouse
Details: compared with MEL and DM1 alone
Experimental: More specifically, dKLA (SEQ ID NO: 2), MEL (SEQ ID NO: 1), MEL-dKLA (SEQ ID NO: 3; […]-d[KLAKLAKKLAKLAK]) peptide and 5-carboxyl tetramethylrhodamine (TMR)-conjugated dKLA, MEL and MEL-KLA peptides were purchased from GenScript (Piscataway, N.J., USA). TMR was conjugated with the amino group located at the N-terminal of the peptide. Regarding all of the peptides, 95% or greater purified peptides were used. Murine Lewis lung carcinoma (LLC) cells and macrophage RAW264.7 of mice were cultured in Dulbecco's modified Eagle's medium (DMEM; Welgene, Korea) to which 10% heat-inactivated fetal bovine serum (Welgene), 100 U/mL penicillin and 100 μg/mL streptomycin (Invitrogen, CA, USA) were added. Macrophage (RAW264.7) differentiated into M2-type was treated with IL-4 and IL-13 in the medium for 24 hours. After the treatment, the cells were cultured in a state in which serum was insufficient for 48 hours. M1-type macrophage was treated with 1 ng/mL of LPS for 24 hours to induce differentiation.
The cell viability test was measured via the MTS assay. RAW264.7 macrophage was differentiated into M1-type or M2-type macrophage which was inoculated onto a 96-well plate at 3×10^4 cells/well. The next day, the macrophage was treated with each of PBS, dKLA, MEL and MEL-dKLA. After 24 hours, the culture solution was replaced and the cell was treated with 20 μL MTS reaction solution (Promega, WI, USA), followed by reaction at 37° C. Then, […] was measured at 490 nm to measure cell viability.
The MEL-DM1 anticancer drug conjugation method and cell test method are as described above.

“MEL-DM1: melittin with N-terminal maleimide covalently bound to the free-sulfhydryl group of maytansine DM1” was tested, and the “M2 selective cell killing effect” value was “higher M2 selective cell killing effect”.
